PMC10794144, “A novel antibiotic class targeting the lipopolysaccharide transporter” (Nature, 2024)
Converted amounts (≈) assume the structure as drawn. Where two headings read alike, the source gives them in different places.

Legend:
K. pneumoniae = test: MIC versus efflux impaired strains; format: cell-based, Klebsiella pneumoniae
Method: (§1) MIC determinations were performed using the broth microdilution method and in line with CLSI guidelines M07 and M100 (refs. [37],[38]). Bacterial inocula were prepared by diluting a 0.5 McFarland suspension in CAMHB or lysogeny broth (LB) specifically for A. baylyi isolates. […] MIC values of all of the tested antibiotics were read as the lowest compound concentration inhibiting bacterial growth by naked eye or beyond which the OD600 ceased to decrease.

P. aeruginosa = test: MIC versus efflux impaired and porin deficient strains; format: cell-based, Pseudomonas aeruginosa
Method: as §1

[1] = test system: A. baylyi ADP1 (ATCC 33305); test: MIC of constructed lptF mutants in LB, OD600; format: cell-based, Acinetobacter baylyi
Method: as §1
Culture, genetic manipulation and MIC measurements of A. baylyi ADP1 were conducted according to previously reported procedures[56],[57].

A. baylyi LptB2FGC = test: LPS-release assay, proteoliposomes to LptA; format: biochemical, Acinetobacter baylyi
Method: Proteoliposomes were prepared as described previously. Aqueous E. coli polar lipid extract (Avanti Polar Lipids) (30 mg ml^−1) and aqueous LPS from E. coli EH100 (Ra mutant; Sigma-Aldrich) (2 mg ml^−1) were sonicated briefly for homogenization. A mixture of 20 mM Tris-HCl (pH 8.0), 150 mM NaCl, 7.5 mg ml^−1 E. coli polar lipids, 0.5 mg ml^−1 LPS and 0.25% DDM was prepared and kept on ice for 10 min. Purified LptB2FGC was added to a final concentration of 0.86 μM, and the mixture was left on ice for 20 min. The mixture was diluted 100-fold with cold 20 mM Tris-HCl (pH 8.0) and 150 mM NaCl and kept on ice for 20 min. The proteoliposomes were pelleted (300,000g, 2 h, 4 °C), resuspended in 20 mM Tris-HCl (pH 8.0) and 150 mM NaCl, diluted 100× and centrifuged (300,000g, 2 h, 4 °C). The pellets were resuspended in a mixture of 20 mM Tris-HCl (pH 8.0), 150 mM NaCl and 10% glycerol (250 μl per 100 μl of the original predilution solution), homogenized by sonication, flash-frozen and stored at −80 °C until use.
The levels of release of LPS from proteoliposomes to LptA were measured as previously described. Assays used 60% proteoliposomes (by volume) in a solution containing 50 mM Tris-HCl (pH 8.0), 500 mM NaCl, 10% glycerol and 2 µM LptA^I36pBPA. Reaction mixtures were incubated with drug for 10 min at room temperature, as applicable. […]

E. coli LptB2FGC = biological target: T1, E. coli LptB2FGC (Escherichia coli, UniProt P0ADC6+P0AF98); test: LPS-release assay, proteoliposomes to LptA; format: biochemical; conditions: E. coli LptB2FGC proteins
T1 construct: made in house; host or cells: E. coli C43(λDE3)
T1 sequence (P0AF98 whole entry): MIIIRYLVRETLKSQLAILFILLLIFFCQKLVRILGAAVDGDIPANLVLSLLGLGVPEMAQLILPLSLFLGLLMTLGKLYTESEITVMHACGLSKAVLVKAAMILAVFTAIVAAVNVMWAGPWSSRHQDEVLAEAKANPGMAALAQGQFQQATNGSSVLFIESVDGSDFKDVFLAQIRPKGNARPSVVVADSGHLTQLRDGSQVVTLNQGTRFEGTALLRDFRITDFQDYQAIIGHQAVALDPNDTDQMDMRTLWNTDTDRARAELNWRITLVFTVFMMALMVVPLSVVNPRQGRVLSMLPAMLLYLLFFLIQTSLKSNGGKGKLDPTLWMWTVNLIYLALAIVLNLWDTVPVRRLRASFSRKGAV
T1 sequence (P0ADC6 whole entry): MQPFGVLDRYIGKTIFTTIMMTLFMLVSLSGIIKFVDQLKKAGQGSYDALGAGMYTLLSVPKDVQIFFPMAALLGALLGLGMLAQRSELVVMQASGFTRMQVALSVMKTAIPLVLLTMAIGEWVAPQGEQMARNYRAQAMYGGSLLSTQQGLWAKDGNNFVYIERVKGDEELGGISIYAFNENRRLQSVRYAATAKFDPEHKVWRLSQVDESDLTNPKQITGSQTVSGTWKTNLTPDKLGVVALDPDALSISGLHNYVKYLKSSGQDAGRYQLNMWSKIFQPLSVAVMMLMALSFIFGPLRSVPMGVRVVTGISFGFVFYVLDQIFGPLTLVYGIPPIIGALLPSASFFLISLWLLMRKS
T1 sequence (P0A9V1 whole entry partner): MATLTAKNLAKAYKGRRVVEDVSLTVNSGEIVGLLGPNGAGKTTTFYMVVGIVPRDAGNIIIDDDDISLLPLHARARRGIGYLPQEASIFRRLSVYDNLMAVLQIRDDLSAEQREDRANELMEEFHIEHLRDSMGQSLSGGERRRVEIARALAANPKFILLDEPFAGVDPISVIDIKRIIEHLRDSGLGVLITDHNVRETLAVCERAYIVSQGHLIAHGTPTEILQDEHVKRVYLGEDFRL
T1 sequence (P0ADV9 whole entry partner): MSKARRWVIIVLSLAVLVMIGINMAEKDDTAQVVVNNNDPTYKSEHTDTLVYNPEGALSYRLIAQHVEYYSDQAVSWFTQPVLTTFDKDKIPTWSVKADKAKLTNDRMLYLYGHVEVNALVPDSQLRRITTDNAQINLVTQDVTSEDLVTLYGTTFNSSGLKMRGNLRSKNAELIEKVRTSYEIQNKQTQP
Method: The levels of release of LPS from proteoliposomes to LptA were measured as previously described. Assays used 60% proteoliposomes (by volume) in a solution containing 50 mM Tris-HCl (pH 8.0), 500 mM NaCl, 10% glycerol and 2 µM LptA^I36pBPA. Reaction mixtures were incubated with drug for 10 min at room temperature, as applicable. Reactions were then initiated by the addition of ATP and MgCl2 (final concentrations of 5 mM and 2 mM, respectively) and proceeded at 30 °C. Aliquots (25 µl) were removed from the reaction mixtures and irradiated with ultraviolet light (365 nm) on ice for 10 min using a B-100AP lamp (Thermo Fisher Scientific). After ultraviolet irradiation, 25 µl 2× SDS–PAGE sample loading buffer was added, the samples were boiled for 10 min and proteins were separated using Tris-HCl 4–20% polyacrylamide gradient gels with Tris-glycine running buffer. Immunoblotting was conducted as described above.

A. baumannii ACC01073 = test: Neutropaenic mouse lung infection (pneumonia) model; format: in vivo; conditions: for CFU/lungs, average / Log CFU/lungs, average (bacterial load): n = 6
Method: An intramuscular inoculation of a bacterial suspension of approximately 10^6 CFU per thigh was used to induce the infection. Treatment started 2 h after infection. […] Thigh bacterial burden was determined after 24 h of treatment. In the pneumonia model, an intratracheal inoculation of approximately 10^7 CFU per lung was used to induce the infection. Treatment started 2 h after infection. […] Lung bacterial burden was determined after 24 h treatment. Standard of care antibiotic was tested at a single dose in both infection models. GraphPad Prism 8 was used for graphical presentation and to analyse data.

Aqueous solubility = format: physicochemical; conditions: pH 1–9

`CN1C(=O)[C@H](CCCCN)NC(=O)[C@H](CCCN)NCc2cccnc2Sc2c(Cl)ccc(Cl)c2CNC(=O)[C@@H]1Cc1c[nH]c2ccccc12` [RO7075573] showed an MIC (K. pneumoniae; K. pneumoniae 1161486a, efflux impaired, Δ acrAB) of over 64 mg/L, an MIC (K. pneumoniae; Klebsiella pneumoniae, K. pneumoniae 1161486, WT, read-out: MIC) of over 64 mg/L and an MIC (P. aeruginosa; P. aeruginosa PAOD1, porin deficient, PAO1 Δ oprD) of over 64 µg/mL. The MIC (P. aeruginosa; Pseudomonas aeruginosa, P. aeruginosa PAO1, WT, read-out: MIC) was over 64 µg/mL and the MIC (P. aeruginosa; Pseudomonas aeruginosa, P. aeruginosa PAO397, efflux impaired and porin deficient, read-out: MIC) was 64 µg/mL (≈ 86.5 µM).
With `CN1C(=O)[C@H](CCCCN)NC(=O)[C@H](CCCN)NCc2cccnc2Sc2cccc(-c3ccc(C(=O)O)cc3)c2CNC(=O)[C@@H]1Cc1c[nH]c2ccccc12` [zosurabalpin] the “Fold MIC increase” value ([1]; constructed LptF (E249K&I317N)) was over 700, the “Fold MIC increase” value ([1]; constructed LptF E249K) was 242 and the “Fold MIC increase” value ([1]; constructed LptF I317N) was 128. The “Fold MIC increase” value ([1]; constructed LptF K320T) was 20, the “Fold MIC increase” value ([1]; constructed LptF R322C) was 9 and the LPS transport (A. baylyi LptB2FGC; complexes with LptF E249K or I317N) was “did not inhibit LPS transport”. The “LPS extraction to LptA” value (A. baylyi LptB2FGC; wild-type LptB2FGC proteoliposomes, biological triplicate) was “blocked LPS extraction at concentrations comparable to growth inhibitory concentrations”, the “LPS extraction to LptA” value (E. coli LptB2FGC) was “no effect on LPS extraction” and the “ΔLog CFU/lungs vs A/0h” value (A. baumannii ACC01073; 6 mg/kg/day s.c. q6h, 24 h) was 1.37. The “CFU/lungs, average” value (A. baumannii ACC01073; 6 mg/kg/day s.c. q6h, 24 h) was 1.26E+09, the “Log CFU/lungs, average (bacterial load)” value (A. baumannii ACC01073; 6 mg/kg/day s.c. q6h, 24 h) was 9.06 and the “ΔLog CFU/lungs vs A/0h” value (A. baumannii ACC01073; 20 mg/kg/day q6h) was 1.47. The “CFU/lungs, average” value (A. baumannii ACC01073; 20 mg/kg/day q6h) was 1.49E+09, the “Log CFU/lungs, average (bacterial load)” value (A. baumannii ACC01073; 20 mg/kg/day q6h) was 9.16 and the “ΔLog CFU/lungs vs A/0h” value (A. baumannii ACC01073; 60 mg/kg/day q6h) was 1.13. The “CFU/lungs, average” value (A. baumannii ACC01073; 60 mg/kg/day q6h) was 8.46E+08, the “Log CFU/lungs, average (bacterial load)” value (A. baumannii ACC01073; 60 mg/kg/day q6h) was 8.82 and the “ΔLog CFU/lungs vs A/0h” value (A. baumannii ACC01073; 100 mg/kg/day q6h) was -0.05. For the same compound, the “CFU/lungs, average” value (A. baumannii ACC01073; 100 mg/kg/day q6h) was 1.38E+08, the “Log CFU/lungs, average (bacterial load)” value (A. baumannii ACC01073; 100 mg/kg/day q6h) was 7.64 and the “ΔLog CFU/lungs vs A/0h” value (A. baumannii ACC01073; 160 mg/kg/day q6h) was -1.08. The “CFU/lungs, average” value (A. baumannii ACC01073; 160 mg/kg/day q6h) was 9.40E+06, the “Log CFU/lungs, average (bacterial load)” value (A. baumannii ACC01073; 160 mg/kg/day q6h) was 6.61 and the “ΔLog CFU/lungs vs A/0h” value (A. baumannii ACC01073; 240 mg/kg/day q6h) was -2.52. For the same compound, the “CFU/lungs, average” value (A. baumannii ACC01073; 240 mg/kg/day q6h) was 4.14E+05, the “Log CFU/lungs, average (bacterial load)” value (A. baumannii ACC01073; 240 mg/kg/day q6h) was 5.17 and the “Reduction in CFUs in lungs” value (A. baumannii ACC01073; 360 mg per kg per day) was over 5 log. The “ΔLog CFU/lungs vs A/0h” value (A. baumannii ACC01073; 360 mg/kg/day q6h) was -4.81, the “CFU/lungs, average” value (A. baumannii ACC01073; 360 mg/kg/day q6h) was 9.88E+02 and the “Log CFU/lungs, average (bacterial load)” value (A. baumannii ACC01073; 360 mg/kg/day q6h) was 2.88. For the same compound, the aqueous solubility (Aqueous solubility) was over 100 mg/mL.
